In US9790203B2, “Inhibitor compounds of phosphodiesterase type 10A” (ABBVIE DEUTSCHLAND GMBH & CO. KG, priority 2012, dated 2017):

How the values were obtained:
PDE10A = PDE10A (Homo sapiens (Human), UniProt Q9Y233); assay: Measurement of PDE activity (HTRF cAMP kit, recombinant PDE); assay type: biochemical; conditions: recombinant PDE10, 20 nM cyclic nucleotide substrate, 60 minutes at 29 C
Method: The recombinant PDE proteins are used in in vitro enzymatic reaction for measurement of PDE activity. These recombinant proteins, including PDE10A (human, rat and mouse PDE10) and isoforms of PDEs 1, 3, 4, and 5, were purchased from commercial vendor BPS Bioscience. The enzymatic activity of PDEs was determined by cAMP measurement kit from CisBio (IBA) using HTRF technology.
The PDE enzymatic reaction was carried out in assay buffer (20 mM Tris-HCl pH7.5, 10 mM MgCl2, 0.1% bovine serum albumin) containing enzyme and substrate. […] The substrate cyclic nucleotide (cAMP or cGMP) concentration used in the assay was 20 nM for PDE10, and 100 nM for other PDEs. The inhibitory effect of compound was determined by incubating various concentration of inhibitor in the enzymatic assay. […] Next, the compound at varying concentration was mixed with PDE enzyme. The reaction was initiated by addition of cyclic nucleotide substrate, and incubated for 60 minutes at 29 C. The reaction was stopped by addition of lysis buffer from assay kit. The cAMP-d2 and anti-cAMP cryptate in the lysis buffer detected the level of cAMP left from the PDE hydrolysis reaction. […] Thus, IC50 value of inhibitor can be obtained by plotting inhibitor concentration against PDE activity at that concentration.

[1] = Microsomal half-life / microsomal clearance, rat liver microsomes; assay type: in vitro ADME; conditions: 0.5 μM test substance, 0.25 mg microsomal protein/ml, pH 7.4, 37° C.
Method: (§1) The metabolic stability of the compounds of the invention was determined in the following assay.
(§2) The test substances were incubated in a concentration of 0.5 μM as follows:
(§3) 0.5 μM test substance are preincubated together with liver microsomes from different species (from rat, human or other species) (0.25 mg of microsomal protein/ml) in 0.05 M potassium phosphate buffer of pH 7.4 in microtiter plates at 37° C. for 5 min. The reaction is started by adding NADPH (1 mg/mL). After 0, 5, 10, 15, 20 and 30 min, 50 μl aliquots are removed, and the reaction is immediately stopped and cooled with the same volume of acetonitrile. The samples are frozen until analyzed. The remaining concentration of undegraded test substance is determined by MSMS. The half-life (T1/2) is determined from the gradient of the signal of test substance/unit time plot, it being possible to calculate the half-life of the test substance, assuming first order kinetics, from the decrease in the concentration of the compound with time. The microsomal clearance (mCl) is calculated from mCl=ln 2/T1/2/(content of microsomal protein in mg/ml)×1000 [ml/min/mg] (modified from references: Di, The Society for Biomoleculur Screening, 2003, 453-462; Obach, DMD, 1999 vol 27. N 11, 1350-1359).

[2] = Microsomal half-life / microsomal clearance, human liver microsomes; assay type: in vitro ADME; conditions: 0.5 μM test substance, 0.25 mg microsomal protein/ml, pH 7.4, 37° C.
Method: as §1, §2, §3

rats [3] = conditions: cited from earlier work
rats [4] = conditions: cited from earlier work; remark: listed apart in the source
rats [5] = conditions: cited from earlier work; remark: listed apart in the source

Chain of PDE10A (Q9Y233 whole entry, species assumed, canonical isoform): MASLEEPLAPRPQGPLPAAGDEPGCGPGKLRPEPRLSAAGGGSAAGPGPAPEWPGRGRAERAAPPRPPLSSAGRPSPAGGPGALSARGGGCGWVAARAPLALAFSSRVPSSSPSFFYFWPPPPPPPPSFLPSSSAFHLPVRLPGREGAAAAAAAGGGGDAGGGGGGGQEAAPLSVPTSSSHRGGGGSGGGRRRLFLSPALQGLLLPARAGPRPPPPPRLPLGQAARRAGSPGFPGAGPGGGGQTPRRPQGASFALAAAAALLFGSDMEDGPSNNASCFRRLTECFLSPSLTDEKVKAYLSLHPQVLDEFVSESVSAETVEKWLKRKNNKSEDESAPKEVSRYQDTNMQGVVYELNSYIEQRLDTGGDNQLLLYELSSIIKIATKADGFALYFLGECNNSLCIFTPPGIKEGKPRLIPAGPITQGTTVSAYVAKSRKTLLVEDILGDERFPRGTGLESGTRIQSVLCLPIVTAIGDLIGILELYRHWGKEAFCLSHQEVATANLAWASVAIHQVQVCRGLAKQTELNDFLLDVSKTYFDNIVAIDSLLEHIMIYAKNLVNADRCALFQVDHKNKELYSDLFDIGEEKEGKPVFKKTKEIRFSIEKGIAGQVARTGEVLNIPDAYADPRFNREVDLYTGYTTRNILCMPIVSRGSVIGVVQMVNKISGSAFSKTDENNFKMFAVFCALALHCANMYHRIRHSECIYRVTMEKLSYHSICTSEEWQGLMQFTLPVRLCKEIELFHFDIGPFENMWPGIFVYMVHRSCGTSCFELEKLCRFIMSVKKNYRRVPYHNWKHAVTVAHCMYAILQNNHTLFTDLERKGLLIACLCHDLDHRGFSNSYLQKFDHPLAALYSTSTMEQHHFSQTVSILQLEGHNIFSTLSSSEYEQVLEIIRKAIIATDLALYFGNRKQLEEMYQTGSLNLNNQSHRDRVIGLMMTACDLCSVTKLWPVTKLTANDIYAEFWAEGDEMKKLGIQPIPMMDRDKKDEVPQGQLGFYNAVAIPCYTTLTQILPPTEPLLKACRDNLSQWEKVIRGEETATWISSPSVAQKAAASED

Row | SMILES | IC50 (PDE10A) [nM] | Rat mCl [1] | Human mCl [2] | catalepsy on its own (rats [3]; papaverine alone) | cataleptic effect of the D2 receptor antagonist haloperidol (rats [3]; with haloperidol) | hyperactivity induced by PCP (rats [4]) | reduction of amphetamine-induced hyperactivity (rats [5])
1 | Cc1cccc(C#Cc2ccc(-c3nn(C)cc3-c3cccnc3)cc2)n1.O=C(O)C(F)(F)F [Example 29, 2-methyl-6-[2-[4-[1-methyl-4-(3-pyridyl)pyrazol-3-yl]phenyl]ethynyl]pyridine; 2,2,2-trifluoroacetic acid] | 200 to 500 | ++ (<100 μl min^−1 mg^−1) | ++ (<100 μl min^−1 mg^−1) | – | – | – | –
2 | COc1cc(-c2nn(C)cc2-c2ccncc2)ccc1C#Cc1cccc(C)n1.O=C(O)C(F)(F)F [Example 32, 2-[2-[2-methoxy-4-[1-methyl-4-(4-pyridyl)pyrazol-3-yl]phenyl]ethynyl]-6-methylpyridine; 2,2,2-trifluoroacetic acid] | < 100 | + (100-220 μl min^−1 mg^−1) | ++ (<100 μl min^−1 mg^−1) | – | – | – | –
3 | COc1ccc(Cc2nccc3cc(OC)c(OC)cc23)cc1OC [Papaverine, papaverine] | – | – | – | did not cause catalepsy on its own | potentiated the cataleptic effect | reduced hyperactivity | insignificant
